Data from patent publication US9969715B2, “Compounds useful for treating cancer” (ABIVAX, priority 2012, dated 2018).

Experiments:
[1] = test system: MDA-MB231-luc-D3H2LN cells; test: Toxicity assay under normal cell culture conditions (MTS), MDA cells; format: cell-based, human; details: MDA-MB231-luc-D3H2LN cells, MEM+10% FBS, 72 h incubation, MTS
Method: (§1) In order to detect possible toxic effects, all compounds are tested in parallel in a viability assay. The viability assay is performed in parallel on serum-starved cells (as in the invasion assay) vs. cells under normal culture conditions (10% FBS).
(§2) Toxicity Assays (Under Normal Cell Culture Conditions):
(§3) Compounds were prepared as for the invasion assay, and then added to either MDA-MB231-luc-D3H2LN cells (2000/well) under normal culture conditions (MEM+10% FBS), or human PBMC (75000/well, in RPMI+10% FBS+IL-2) in standard 96-well tissue culture plates. After 72 h incubation, a standard MTS assay was performed according to the manufacturer's instructions (Promega Ref. G3581). Compounds were tested at various concentrations (concentration-response curves) in order to determine the concentrations at which 50% toxicity is obtained.

human PBMC = test: Toxicity assay under normal cell culture conditions (MTS), PBMC; format: cell-based; details: human PBMC, RPMI+10% FBS+IL-2, 72 h incubation, MTS
Method: as §2, §3

[2] = test system: MDA-MB231-luc-D3H2LN cells; test: Viability (MTS) assay on the cells in collagen under invasion assay conditions; format: cell-based, human; details: loss of viability at the concentration giving 0.5 × effect of 10 μM Y-27632, invasion assay conditions
Method: (§4) Viability assay, fixation and staining: Following another 24 h incubation, an MTS assay is performed directly on the cells in the collagen. Then, cells are fixed and nuclei are stained.
as §1
Viability Assay: MTS Assay:
add each 33 μl/well of the MTS reagent, incubate 3-4 h at 37° C./5% CO2
read absorbance at 490 nm (proportional to the viability)
calculate the background-corrected signals by subtracting the means of the background signals in absence of cells from the corresponding signals in presence of cells
normalize the background-corrected signals with respect to the mean signal of the negative controls (no drug) (viabilities are thus expressed in “% of control”)
(§5) Final analysis: Determine the concentration at which a given compound has 50% of the anti-invasive effect of the positive control (10 μM Y-27632). Determine the toxicity (=loss of viability) of the compound under these conditions.

[3] = test system: MDA-MB231-luc-D3H2LN cells; test: Invasion of MDA-MB231-D3H2LN cells into collagen (example 15 = procedure 2, 48 h drug pre-incubation); format: cell-based; details: concentration giving 50% of the anti-invasive effect of 10 μM Y-27632; 48 h pre-incubation, 24 h with 5% FBS; read-out: MDA: Inhib. of invasion: 0.5 × eff. of 10 μM Y-27632 at (μM) av
Method: Effect of Drug Compounds on Invasion of MDA-MB231-D3H2LN Cells into Collagen
Preparation of cells at the bottom of a collagen gel: Cells are suspended in a liquid collagen solution (4° C.), distributed into BSA-coated wells, and then collected at the bottom of the wells by centrifugation. The collagen is then solidified by incubation at 37° C. The BSA coating improves the adhesion of the collagen gel.
Pre-treatment with the compounds to be tested: Concentrated drug solutions are then added on top of the collagen, and cells are pre-incubated for 48 h with the drugs at low serum conditions (0.025% FBS).
Stimulation of invasion: Medium with 5% FBS is then added in order to stimulate invasion of the cells into the collagen gel.
as §4
Analysis: Finally, plates are analyzed using an automated microscope. Fluorescent beads that have been included into the BSA coating serve to detect the bottom of the wells. Pictures of the stained nuclei are taken at the same level (0 μm) as well as 25 μm and 50 μm above.
Negative control: No drug (just DMSO at equivalent concentration). Positive control: 10 μM Y-27632. To avoid edge effects, cells are added only to the 60 central wells B2-G11; lines A and H receive only collagen without cells (blank for the MTS assay) columns 1 and 12 remain free. Each drug is tested at least in triplicate. The positive and negative controls should be tested in several triplicates at different positions on each plate. Typical plate map (−=negative control, +=positive control, 1-12=12 different test conditions, i. e. different drug compounds or concentrations):
Preparation of 4× concentrated drug solutions in MEM+0.1% FBS+2% Lutrol E-400+0.8% DMSO: Mix each 620 μl MEM+0.1% FBS+2% Lutrol E-400 with each 4 μl DMSO+each 1 μl of the 50 mM compound stock solutions (yielding […] and 0.8% DMSO). If the desired final compound concentration is <5 μM, then further dilute in MEM+0.1% FBS+0.8% DMSO. Negative control: MEM+0.1% FBS+2% Lutrol E-400+0.8% DMSO without any drug. Preparation of the positive control: Mix 4.5 ml MEM+0.1% FBS+2% Lutrol E-400+[…] with 36 μl 5 mM Y-27632 (freshly thawed aliquot) (yielding 40 μM).
add each 33 μl/well of the 4× concentrated drug solutions in MEM+0.1% FBS+2% Lutrol E-400+0.8% DMSO to the corresponding wells (yields 1× concentrated drugs in MEM+0.025% FBS+0.5% Lutrol E-400+0.2% DMSO final)
incubate 48 h at 37° C./5% CO2
incubate 24 h at 37° C./5% CO2
for each well, calculate the mean invasion distance of the counted cells: (25 μm×number of cells at 25 μm+50 μm×number cells at 50 μm)/sum of cells at 0, 25 and 50 μm
invalidate any replicate with a CV≥50% (compound to be re-tested, or assay to be repeated if CV≥50% for the untreated negative control or the compound Y-27632-treated positive control). Y27632 is a selective inhibitor of the Rho-associated protein kinase p160ROCK of the following formula
validate the assay only if the mean invasion distance of the cells treated with 10 μM Y-27632 (positive control) is decreased by ≥40% as compared to the untreated negative control
as §5
Here, invasion (into collagen) is the concentration of the compound necessary to reach 50% of the inhibition effect compared to 10 μM Y-27632.
Standard operating procedure 2 is exactly the same as the procedure as described in example 15.

Row | SMILES | MDA tox: 50% tox. at (μM) av [1] | PBMC tox.: 50% tox. at (μM) av (human PBMC) | (+ MDA tox. under these cond.) % tox [2] | IC50 [3]
1 | O=C(NCCCN1CCCCC1)c1cccc(Nc2cccc(C(=O)Nc3ccncn3)c2)c1 [Compound 29, N-(3-(piperidin-1-yl)propyl)-3-((3-(pyrimidin-4-ylcarbamoyl)phenyl)amino)benzamide] | 33 µM | 44 µM | <10% | 0.15 µM
2 | O=C(Nc1ccncn1)c1cccc(Nc2cccc(S(=O)(=O)NCCCN3CCCCC3)c2)c1 [Compound 27, 3-((3-(N-(3-(piperidin-1-yl)propyl)sulfamoyl)phenyl)amino)-N-(pyrimidin-4-yl)benzamide] | 66 µM | 61 µM | <10% | 2.8 µM
3 | CN(C(=O)c1cccc(Nc2cccc(S(=O)(=O)NCCCN3CCCCC3)c2)c1)c1ccncc1 [Compound 24, N-methyl-3-((3-(N-(3-(piperidin-1-yl)propyl)sulfamoyl)phenyl)amino)-N-(pyridin-4-yl)benzamide] | >100 µM | ≥100 µM | <10% | 3.55 µM
4 | O=C(NCCCN1CCOCC1)c1cccc(Nc2cccc(C(=O)Nc3ccncn3)c2)c1 [Compound 30, N-(3-morpholinopropyl)-3-((3-(pyrimidin-4-ylcarbamoyl)phenyl)amino)benzamide] | 75 µM | >100 µM | <10% | 0.28 µM
5 | CCN(CC)CCCNC(=O)c1cncc(Nc2cccc(C(=O)Nc3ccncc3)c2)c1 [Compound 32, N-(3-(diethylamino)propyl)-5-((3-(pyridin-4-ylcarbamoyl)phenyl)amino) nicotinamide] | >>100 μM | >>100 μM | <10% | 13.3 µM
6 | CN1CCN(CCCNC(=O)c2ccnc(Nc3cccc(C(=O)N(C)c4ccncc4)c3)c2)CC1 [Compound 39, 2-((3-(methyl(pyridin-4-yl)carbamoyl)phenyl)amino)-N-(3-(4-methylpiperazin-1-yl)propyl)isonicotinamide] | 19 µM | 74 µM | <10% | 1.45 µM
7 | CN(C(=O)c1cccc(Nc2cccc(C(=O)NCCCN3CCCC3)c2)c1)c1ccncc1 [Compound 18, N-methyl-N-(pyridin-4-yl)-3-((3-((3-(pyrrolidin-1-yl)propyl)carbamoyl)phenyl)amino)benzamide] | >100 µM | >100 µM | <10% | 3.45 µM
8 | CCN(CC)CCCNC(=O)c1cccc(Nc2cc(C(=O)Nc3ccncc3)ccn2)c1 [Compound 47, 2-((3-((3-(diethylamino)propyl)carbamoyl)phenyl)amino)-N-(pyridin-4-yl)isonicotinamide] | >100 µM | >100 µM | <10% | 2.2 µM
9 | CCN(CC)CCCNC(=O)c1cccc(Nc2ccc(C(=O)Nc3ccncc3)cc2)n1 [Compound 36, N-(3-(diethylamino)propyl)-6-((4-(pyridin-4-ylcarbamoyl)phenyl)amino)picolinamide] | >>100 μM | 58 µM |  | > 5 µM
10 | CCN(CC)CCCNS(=O)(=O)c1cccc(Nc2cccc(C(=O)N(C)c3ccncc3)c2)c1 [Compound 19, 3-((3-(N-(3-(diethylamino)propyl)sulfamoyl)phenyl)amino)-N-methyl-N-(pyridin-4-yl)benzamide] | >100 µM | >100 µM |  | > 5 µM
11 | CCN(CC)CCCNS(=O)(=O)c1cccc(Nc2cc(C(=O)Nc3ccncc3)ccn2)c1 [Compound 46, 2-((3-(N-(3-(diethylamino)propyl)sulfamoyl)phenyl)amino)-N-(pyridin-4-yl)isonicotinamide] | >100 µM | >100 µM |  | 7.5 µM
12 | CN(C(=O)c1cccc(Nc2cccc(S(=O)(=O)NCCCN3CCOCC3)c2)c1)c1ccncc1 [Compound 23, N-methyl-3-((3-(N-(3-morpholinopropyl)sulfamoyl)phenyl)amino)-N-(pyridin-4-yl)benzamide] | >100 µM | >70 µM |  | > 5 µM
13 | O=C(Nc1ccncc1)c1ccc(Nc2cccc(S(=O)(=O)NCCN3CCCC3)c2)cc1 [Compound 16, N-(pyridin-4-yl)-4-((3-(N-(2-(pyrrolidin-1-yl)ethyl)sulfamoyl)phenyl)amino)benzamide] | 78 µM | 10 µM |  | ≥ 4.6 µM
14 | O=C(NCCCN1CCOCC1)c1cccc(Nc2ccc(C(=O)Nc3ccncc3)cc2)c1 [Compound 14, N-(3-morpholinopropyl)-3-((4-(pyridin-4-ylcarbamoyl)phenyl)amino)benzamide] | 70 µM | 20 µM |  | > 2.5 µM
15 | CN1CCN(C(=O)c2cccc(Nc3cccc(C(=O)Nc4ccncc4)c3)c2)CC1 [Compound 8, 3-((3-(4-methylpiperazine-1-carbonyl)phenyl)amino)-N-(pyridin-4-yl)benzamide] | >>100 μM |  |  | 7.5 µM
16 | CCN(CC)CCCNC(=O)c1cccc(Nc2ccc(C(=O)Nc3ccncc3)cc2)c1 [Compound 13, N-(3-(diethylamino)propyl)-3-((4-(pyridin-4-ylcarbamoyl)phenyl)amino)benzamide] | 93 µM | 34 µM |  | > 5 µM
17 | CCN(CC)CCCNC(=O)c1ccc(Nc2cccc(C(=O)Nc3ccncc3)c2)cc1 [Compound 2, 3-((4-((3-(diethylamino)propyl)carbamoyl)phenyl)amino)-N-(pyridin-4-yl)benzamide] | 103 µM | 156 µM |  | > 5 µM
